Measurements from patent US9434687B2, “Detection of synthetic cannabinoids” (priority 2011, dated 2016).
Counter-ions that a name gives are not always drawn.

Tests used:
Format in all cases: binding, sheep
[1] = tested on: IgG fraction of antiserum raised to Immunogen I; settings: Antibody to Immunogen I; cross-reactants at 100 ng/ml; 1000 ng/ml; standard JWH-018
Description: (§1) An aqueous solution of each immunogen was formulated with Freund's Complete Adjuvant (FCA) to form an emulsion consisting of 2 mg/ml*immunogen in 50% (v/v) FCA. Three sheep were immunised with this emulsion (1° immunisation), 0.25 ml being intramuscularly injected at each of four sites in the flank of each animal. Subsequent immunizations (boosts) contained 1 mg/ml*immunogen. All boosts were emulsified in 50% (v/v) Freund's Incomplete Adjuvant (FIA) and were administered in the same manner as the 1° immunisation, at monthly intervals. Blood sampling took place 7 to 14 days after each boost. *The general procedure for immunogen administration is outlined above, however, it was necessary to deviate from this protocol in some cases, due to reduced immunogen concentrations (Immunogens II, IV, VII and VIII) and/or amount available (Immunogen VIII). Any deviations from the protocol described are outlined in Table 5 below and highlighted in bold.
(§2) The wells of an enhanced binding 96 well polystyrene microtiter plate were coated with IgG fraction of antiserum raised to Immunogen I or II, diluted in 10 mM Tris, pH8.5 (125 μl/well). The appropriate antibody coating dilution was determined using standard ELISA checkerboard techniques. The plate was incubated overnight at 4° C., washed 4 times over 10 minutes with Tris buffered saline containing Tween 20 (TBST) and tapped dry. Standard solutions (JWH-018 for Immunogens I and II) were applied at 0, 0.625, 1.25, 2.5, 5, 10, 20 and 40 ng/ml and 50 μl of each was added to the appropriate wells. 75 μl of conjugate (appropriate hapten-HRP) diluted in Tris buffer (pH 7.2) containing EDTA, D-mannitol, sucrose, thimerosal and BSA, was added to each of the wells. The appropriate dilution of conjugate was also determined using standard ELISA checkerboard techniques. The plate was incubated at 25° C. for 1 hour. Excess unbound conjugate was removed by washing 6 times over a 10 minute period with TBST. 125 μl of tetramethylbenzidine (TMB) substrate solution was added to each well of the plate that was then incubated for 20 minutes in the dark at room temperature. The reaction was terminated by addition of 125 μl 0.2M H2SO4 to each well. The absorbance was then measured at 450 nm using a microtiter plate reader. The data are inputted to a computer program called ‘KC Junior’. It is a 4 parameter fit curve and allow the calculation of concentrations between the standard runs. This program is used to calculate the IC50s by dividing the 0 ng/ml OD value by 2 and obtaining the concentration value from the curve for this OD.
In a similar manner to that described above, the wells of a 96-well microtiter plate were coated with the IgG fraction of the antiserum raised to Immunogens I or II. Standard solutions (JWH-018 for Immunogen I and II) were applied at 0, 0.625, 1.25, 2.5, 5, 10, 20 and 40 ng/ml and conjugate was employed as detection reagent.
(§3) The data set out in Tables 7-10 are generated using antibodies raised against the indicated Immunogens in a competitive binding assay with the indicated tracers, using the indicated standards
(§4) In order to determine the specificity of the competitive ELISAs, standard solutions of a range of structurally similar synthetic cannabinoids and their metabolites were prepared in TBST.
(§5) Using the calibration curves generated and employing a single level of cross reactants, these were used to determine the cross-reactivity of each immunoassay with these substances. These are the standards used for the IC50 and cross-reactivity data generation: […]

[2] = tested on: IgG fraction of antiserum raised to Immunogen IV; settings: Antibody to Immunogen IV; cross-reactants at 100 ng/ml; 1000 ng/ml; standard JWH-018
Description: as §1, §2
(§6) In a similar manner to that described above, the wells of a 96-well microtiter plate were coated with the IgG fraction of the antiserum raised to Immunogens IV, VII or VIII. Standard solutions (JWH-018 for Immunogens IV and VIII, JWH-015 for Immunogen VII) were prepared in TBST at 0, 1.25, 2.5, 5, 10, 20, 40 and 80 ng/ml and conjugate was employed as detection reagent.
as §3, §4, §5

[3] = tested on: IgG fraction of antiserum raised to Immunogen VIII; settings: Antibody to Immunogen VIII; cross-reactants at 100 ng/ml; 1000 ng/ml; standard JWH-018
Description: as §1, §2, §6, §3, §4, §5

[4] = tested on: IgG fraction of antiserum raised to Immunogen VII; settings: Antibody to Immunogen VII; cross-reactants at 100 ng/ml; 1000 ng/ml; standard JWH-015
Description: as §1, §2, §6, §3, §4, §5

| Compound | % B/B0 [1] [%] | % B/B0 [2] [%] | % B/B0 [3] [%] | % B/B0 [4] [%] |
| --- | --- | --- | --- | --- |
| COc1ccc(C(=O)c2cn(CCCCCO)c3ccccc23)c2ccccc12 [JWH-081 N-(5-hydroxypentyl) metabolite] | 61.86 | 26.31 | 47.16 | 89.31 |
| CCCCCn1c(C)c(C(=O)c2ccc(OC)c3ccccc23)c2ccccc21 [JWH-098] | 77.58 | 44.03 | 59.80 | 82.85 |
| CCCC(C)(C)c1ccc2c(c1)OC(C)(C)[C@@H]1CC=C(C)C[C@@H]21 [JWH-133] | 100.56 | 98.18 | 100.00 | 101.84 |
| CCCCCn1cc(C(=O)c2ccc(CCC)c3ccccc23)c2ccccc21 [JWH-182] | 107.08 | 12.83 | 30.65 | 98.40 |
| O=C(c1ccc2ccccc2c1)c1cn(CCN2CCOCC2)c2ccccc12 [JWH-200 2′-naphthyl isomer] | 28.57 | 92.29 | 96.12 | 94.65 |
| CCCCCn1cc(C(=O)Cc2ccc(OC)cc2)c2ccccc21 [JWH-201] | 77.14 | 59.03 | 8.26 | 100.25 |
| CCCCCn1cc(C(=O)Cc2ccccc2Cl)c2ccccc21 [JWH-203] | 72.55 | 52.15 | 9.19 | 99.08 |
| CCCCCn1cc(C(=O)Cc2ccc(Cl)cc2)c2ccccc21 [JWH-206, JWH-203 4-chloro isomer] | 75.96 | 65.63 | 10.55 | 97.17 |
| CCCCCn1cc(C(=O)c2c(CC)ccc3ccccc23)c2ccccc21 [JWH-210 2-ethylnaphthyl isomer] | 81.37 | 53.97 | 73.51 | 96.13 |
| CCCCCn1cc(C(=O)c2ccc(CC)c3ccccc23)c2cc(O)ccc21 [JWH-210 5-hydroxyindole metabolite] | 83.29 | 48.91 | 87.72 | 100.43 |
| CCCCCn1cc(C(=O)c2cccc3ccc(CC)cc23)c2ccccc21 [JWH-210 7-ethylnaphthyl isomer] | 73.11 | 27.07 | 50.90 | 100.55 |
| CCc1ccc(C(=O)c2cn(CCCCCC(=O)O)c3ccccc23)c2ccccc12 [JWH-210 N-(5-carboxypentyl) metabolite] | 76.77 | 85.29 | 96.27 | 96.07 |
| CCCCCn1cc(C(=O)c2ccc(CC)c3ccccc23)c2ccccc21 [JWH-210] | 91.18 | 5.53 | 16.87 | 96.62 |
| CCCCCn1cc(C(=O)Cc2ccccc2OC)c2ccccc21 [JWH-250] | 78.94 | 41.08 | 9.40 | 97.23 |
| CCCCCn1cc(C(=O)Cc2ccccc2C)c2ccccc21 [JWH-251] | 68.01 | 42.02 | 9.12 | 96.74 |
| CCCCCn1cc(C(=O)Cc2cccc(OC)c2)c2ccccc21 [JWH-302] | 84.66 | 45.67 | 7.97 | 104.92 |
| CCCCCn1cc(C(=O)c2cccc(OC)c2)c2ccccc21 [RCS-4 3-methoxy isomer] | 31.19 | 25.65 | 10.95 | 94.72 |
| COc1ccc(C(=O)c2cn(CCCC(C)O)c3ccccc23)cc1 (centres unmarked) [RCS-4 N-(4-hydroxypentyl) metabolite] | 65.71 | 59.16 | 8.89 | 95.72 |
| COc1ccc(C(=O)c2cn(CCCCCC(=O)O)c3ccccc23)cc1 [RCS-4 N-(5-carboxypentyl) metabolite] | 77.12 | 91.44 | 91.97 | 94.00 |
| COc1ccc(C(=O)c2cn(CCCCCO)c3ccccc23)cc1 [RCS-4 N-(5-hydroxypentyl) metabolite] | 59.51 | 61.03 | 19.13 | 94.55 |
| CCCCn1cc(C(=O)c2ccc(OC)cc2)c2ccccc21 [RCS-4-C4 homologue] | 76.27 | 27.17 | 9.54 | 100.20 |
| CCCCCn1cc(C(=O)c2ccc(OC)cc2)c2ccccc21 [RCS-4] | 80.46 | 19.21 | 5.93 | 93.51 |
| COc1cccc(CC(=O)c2cn(CCC3CCCCC3)c3ccccc23)c1 [RCS-8 3-methoxy isomer] | 93.24 | 89.43 | 83.62 | 93.73 |
| COc1ccc(CC(=O)c2cn(CCC3CCCCC3)c3ccccc23)cc1 [RCS-8 4-methoxy isomer] | 94.94 | 90.78 | 100.72 | 98.21 |
| COc1ccccc1CC(=O)c1cn(CCC2CCCCC2)c2ccccc12 [RCS-8] | 82.65 | 85.50 | 88.79 | 94.57 |
| NCCc1c[nH]c2ccc(O)cc12 [Serotonin HCl] | 99.65 | 95.40 | 100.36 | 99.83 |
